pKi: −log10 of the molar value.
Assays:
[1] = Inhibition of recombinant SARS-CoV-2 MPro overexpressed in Escherichia coli assessed as inhibition constant using VNSTLQISGLRLys(Dabcyl) as substrate by FRET assay; set-up: species or system Severe acute respiratory syndrome coronavirus 2; conditions: for pKi: read-out: Ki
[2] = system: Severe acute respiratory syndrome coronavirus 2; experiment: Inhibition of recombinant SARS-CoV-2 MPro overexpressed in Escherichia coli assessed as inhibition constant using VNSTLQISGLRLys(Dabcyl) as substrate at 10 uM by FRET assay relative to control

CCOC(=O)c1sc(NNC(=O)c2ccc(Cl)cc2)nc1C
pKi [1]: 4.83

O=C(NNc1nc(-c2ccc(Br)cc2)cs1)c1ccccc1
Ki [1]: Not_active | inhibition [2]: < 50%

O=C(NNc1ncc(-c2ccc(Cl)cc2)s1)c1cccc(Cl)c1
Ki [1]: Not_active | inhibition [2]: < 50%

CCOC(=O)c1sc(N/N=C/c2cc3ccccc3nc2Cl)nc1C
Ki [1]: Not_active

O=C(NNc1nc(-c2ccc(Br)cc2)cs1)c1ccc(F)cc1
pKi [1]: 5.37

O=C(NNc1nc(-c2ccc(Cl)cc2)cs1)c1ccc(F)cc1
pKi [1]: 4.98

CCOC(=O)c1sc(NNC(=O)c2ccc(F)cc2)nc1C
Ki [1]: Not_active | inhibition [2]: < 50%

CCOC(=O)c1sc(NNC(=O)c2ccccc2C)nc1C
Ki [1]: Not_active | inhibition [2]: < 50%

O=c1c2ccccc2[se]n1-c1ccccc1 [EBSELEN]
pKi [1]: 6.31

Cc1ccc(-c2csc(NNC(=O)c3ccc(F)cc3)n2)cc1
pKi [1]: 4.96

Clc1nc2ccccc2cc1/C=N/Nc1nc(-c2ccccc2)cs1
Ki [1]: Not_active | inhibition [2]: < 50%

O=C(NNc1nc(-c2ccc(Cl)cc2)cs1)c1ccc(Br)cc1
Ki [1]: Not_active | inhibition [2]: < 50%

COC(=O)c1sc(NNC(=O)c2ccc([N+](=O)[O-])cc2)nc1C
Ki [1]: Not_active | inhibition [2]: < 50%

O=C(NNc1ncc(-c2ccc(Cl)cc2)s1)c1ccc2ccccc2c1
Ki [1]: Not_active | inhibition [2]: < 50%

CCOC(=O)c1sc(NNC(=O)c2cccc(Br)c2)nc1C
Ki [1]: Not_active | inhibition [2]: < 50%

CCOC(=O)c1sc(NNC(=O)c2ccc3ccccc3c2)nc1C
Ki [1]: Not_active | inhibition [2]: < 50%

CCOC(=O)c1sc(NNC(=O)c2ccc([N+](=O)[O-])cc2)nc1C
pKi [1]: 6.14

CCOC(=O)c1sc(NNC(=O)/C=C/c2ccccc2)nc1C
pKi [1]: 5.96

CCOC(=O)c1sc(NNC(=O)c2ccco2)nc1C
Ki [1]: Not_active | inhibition [2]: < 50%

O=C(NNc1nc(-c2ccc(Br)cc2)cs1)c1ccc(Br)cc1
Ki [1]: Not_active | inhibition [2]: < 50%

CCOC(=O)c1sc(NNC(=O)c2ccc(C)cc2)nc1C
Ki [1]: Not_active | inhibition [2]: < 50%

Oc1ccc(/C=N/Nc2nc(-c3ccc(Cl)cc3)cs2)cc1
pKi [1]: 4.73

Cc1ccc(C(=O)NNc2nc(-c3ccc(Br)cc3)cs2)cc1
Ki [1]: Not_active | inhibition [2]: < 50%

Cc1ccc(-c2csc(NNC(=O)c3ccc(Cl)cc3)n2)cc1
Ki [1]: Not_active | inhibition [2]: < 50%

Cc1ccc(C(=O)NNc2nc(-c3ccc(C)cc3)cs2)cc1
Ki [1]: Not_active | inhibition [2]: < 50%

CCOC(=O)c1sc(NNC(=O)c2cccc(Cl)c2)nc1C
Ki [1]: Not_active | inhibition [2]: < 50%

CCOC(=O)c1sc(NNC(=O)c2ccccc2OC)nc1C
Ki [1]: Not_active | inhibition [2]: < 50%

O=C(NNc1nc(-c2ccc(Cl)cc2)cs1)c1ccc(Cl)cc1
pKi [1]: 4.87

Cc1ccc(-c2csc(NNC(=O)c3ccc([N+](=O)[O-])cc3)n2)cc1
pKi [1]: 4.35

O=C(NNc1nc(-c2ccc(Br)cc2)cs1)c1ccc(Cl)cc1
Ki [1]: Not_active | inhibition [2]: < 50%

CCOC(=O)c1sc(NNC(=O)c2ccccc2)nc1C
Ki [1]: Not_active | inhibition [2]: < 50%

CCOC(=O)c1sc(NNC(=O)c2ccc(Br)cc2)nc1C
pKi [1]: 5.34

Cc1ccc(C(=O)NNc2nc(-c3ccc(Cl)cc3)cs2)cc1
pKi [1]: 5.03

Cc1ccc(-c2csc(NNC(=O)c3ccc(Br)cc3)n2)cc1
Ki [1]: Not_active | inhibition [2]: < 50%

CCOC(=O)c1sc(NNC(=O)c2cccs2)nc1C
pKi [1]: 5.62

O=C(NNc1nc(-c2ccc(Br)cc2)cs1)c1ccc([N+](=O)[O-])cc1
Ki [1]: Not_active | inhibition [2]: < 50%
